Assay results: patent US20250332119A1, “NOVEL ANTI-INFLAMMATORY COMPOSITION AND USE THEREOF” (ASK CO., LTD., priority 2023, published 2025)

Experiments:
[1] = tested on: RAW264.7 (mouse macrophage); assay: NO production in LPS-induced mouse macrophages (Griess reagent); type: cell-based; settings: RAW264.7, LPS 1 μg/mL, 24 hours, sample pretreatment 30 minutes, non-cytotoxic concentration range
Protocol: (§1) To evaluate the inhibitory ability against nitric oxide and PGE2 production induced by LPS (lipopolysaccharide), mouse macrophages were used to assess the effect on the production of nitric oxide (NO) and prostaglandin E2 (PGE2). The cells used in the experiment were RAW264.7 (mouse macrophage), which were cultured in Dulbecco's modified Eagle's medium (DMEM, Invitrogen) supplemented with 10% fetal bovine serum (FBS, Lonza) and 50 μg/mL streptomycin (Sigma) at 37° C. in 5% CO2.
Specifically, the cells were seeded into 96-well plates at a density of 1× 10^5 cells/well and incubated at 37° C. in a 5% CO2 incubator for 24 hours. The culture medium was removed from the cultured cells, and the medium was replaced with a fresh medium containing the test sample and the cells pre-incubated at 37° C. under 5% CO2 for 30 minutes. Following the 30-minute incubation, LPS was added to a final concentration of 1 μg/mL, and the cells were incubated at 37° C. in a 5% CO2 incubator for 24 hours. After incubation, 100 μL of the supernatant was transferred to a new 96-well plate and mixed with an equal volume of a 1:1 mixture of Griess reagent A and B, then 100 μL aliquot of the resulting mixture was dispensed into each well. Immediately after treatment with Griess reagent, absorbance was measured at 540 nm using a microplate reader. The NO production rate (%) of macrophages was calculated using Equation 1 below.

[2] = tested on: RAW264.7 (mouse macrophage); assay: PGE2 production in LPS-induced mouse macrophages (ELISA); type: cell-based; settings: RAW264.7, LPS, 24 hours
Protocol: as §1
In addition, to evaluate the production of PGE2, a procedure similar to that described above was followed. The procedures for treating the cells with the sample and LPS after cell culture were identical. Subsequently, 100 μL aliquots of the supernatant were collected and transferred to a new 96-well plate, and diluted 10- to 20-fold with culture medium. In the NSB (Non-specific binding) wells of the Anti-Mouse IgG plate, 100 μL of culture medium was added. Then, 100 μL each of the standard and diluted supernatant were added to the respective wells, followed by 50 μL of blue PGE2-AP conjugate added to all wells except the blank well. 50 μL of culture medium was added to the NSB wells, and 50 μL of yellow PGE2 antibody was added to all wells except the blank and NSB wells. The plate was then shaken using an orbital shaker at 500 rpm for 2 hours at room temperature (22-25° C.). After 2 hours, the contents of the plate were discarded, and the wells were washed three times with 400 μL of washing buffer. Then, 200 μL of substrate solution was added to each well and the plate was incubated at room temperature (22-25° C.) for 45 minutes. After incubation, 50 μL of stop solution was added to each well, and the absorbance was immediately measured at 405 nm using a microplate reader. The PGE2 production rate (%) of macrophages was calculated using Equations 2 and 3 below.

IL-1α = IL-1α mRNA expression by Realtime qRT-PCR in LPS-induced macrophages; type: cell-based, mouse; settings: RAW264.7, LPS 24 hours
Protocol: (§2) To evaluate the inhibitory ability against inflammatory cytokines induced by LPS (lipopolysaccharide), mouse macrophages were used to assess the effect on the production of IL-1α and TNF-α, which are the early-stage inflammatory molecules. The cells used in the experiment were RAW264.7 (Mouse macrophage), which were cultured at 37° C. under 5% CO2 in Dulbecco's modified Eagle's medium (DMEM, Invitrogen) supplemented with 10% fetal bovine serum (FBS, Lonza) and 50 μg/mL streptomycin (Sigma).
(§3) Specifically, the cells were seeded into 6-well plates at a density of 1×10^6 cells/well and cultured at 37° C. in a 5% CO2 incubator for 24 hours. After removing the culture medium, the cells were replaced with fresh medium containing the sample and pre-incubated at 37° C. under 5% CO2 for 30 minutes. Following pretreatment with the sample for 30 minutes, the cells were exposed with LPS for 24 hours to induce an inflammatory response. As a control, cells treated with LPS alone, without sample treatment, were used.
(§4) Total RNA in cells was then extracted from cultured cells using Trizol reagent (Invitrogen, USA) for RNA analysis. The purity and integrity of the RNA were confirmed by measuring the A260 nm/A280 nm ratio, and RNA yield was measured by absorbance at 260 nm.
(§5) For cDNA synthesis, 3 μg of total RNA was mixed with Oligo dT 15 (500 ng/μL) primer, dNTP (10 mM), RTase inhibitor (40 U/μL), and Powerscript II RTase (Clontech, USA), followed by primer annealing at 25° C. for 10 minutes, cDNA synthesis at 42° C. for 60 minutes, and RTase denaturation at 95° C. for 5 minutes. PCR was performed to amplify IL-1α, TNF-α, and GAPDH from cDNA by mixing 3 μL of cDNA, 5 μL of 10×taq polymerase buffer, 2 μL of 10 mM dNTP, 2 μL each of 10 pmol primers, and 0.5 μL of taq polymerase, followed by the addition of distilled water to a final volume of 50 μL.
(§6) The primer sequences used are shown in Table 1, and the PCR process was carried out using the Real-time qRT PCR method with the LightCycler® 96 System (Roche Diagnostics).

TNF-α = TNF-α mRNA expression by Realtime qRT-PCR in LPS-induced macrophages; type: cell-based, mouse; settings: RAW264.7, LPS 24 hours
Protocol: as §2, §3, §4, §5, §6

macrophages = settings: Food Funct. 2017; 8 (11): 4150-4158; cited from earlier work
[3] = tested on: TNF-α, IL-6, IL-1B, and NOS2; settings: Food Funct. 2017; 8 (11): 4150-4158; cited from earlier work
[4] = tested on: human breast carcinoma cells (MCF-7); settings: Planta Med. 2011; 77 (2): 164-8; cited from earlier work
skeletal muscle cells = settings: J Biotechnol. 2023; 368:53-59; cited from earlier work

Row | Compound | NO production [1] | PGE2 production [2] | PGE2 production ([2]; listed as linoleic acid) | Relative IL-1α mRNA expression (IL-1α) | Relative TNF-α mRNA expression (TNF-α) | NO production in macrophages (macrophages) | expression of proinflammatory cytokines [3] | NO production ([1]; listed as araliadiol) | PGE2 production ([2]; listed as araliadiol) | Relative IL-1α mRNA expression (IL-1α; listed as araliadiol) | Relative TNF-α mRNA expression (TNF-α; listed as araliadiol) | growth of human breast carcinoma cells (MCF-7) [4] | glucose uptake by skeletal muscle cells (skeletal muscle cells)
1 | CCCCC/C=C\C/C=C\CCCCCCCC(=O)O [Assay-5, linoleic acid] | relatively high NO reduction at the lowest concentrations | increase in PGE2 production with increasing concentration | increased the production of the inflammatory factor PGE2 as its concentration increased | tendency toward decreased IL-1α mRNA expression with increasing concentration | did not inhibit TNF-α mRNA expression | inhibiting NO production in macrophages | suppressing the expression of proinflammatory cytokines including TNF-α, IL-6, IL-1B, and NOS2 | – | – | – | – | – | –
2 | C=CC(O)C#CC#CC(O)/C=C\CCCCC (centres unmarked) [Assay-10, (9Z)-1,9-pentadecadiene-4,6-diyne-3,8-diol] | relatively high NO reduction at the lowest concentrations | decrease in PGE2 production with increasing concentration | – | tendency toward decreased expression of both IL-1α and TNF-α mRNA with increasing concentration | tendency toward decreased expression of both IL-1α and TNF-α mRNA with increasing concentration | – | – | higher NO reduction rate than linoleic acid | decreased PGE2 production with increasing concentration | relatively more reduced by araliadiol compared to linoleic acid | relatively more reduced by araliadiol compared to linoleic acid | inhibit the growth of human breast carcinoma cells (MCF-7) | effectively enhance glucose uptake by skeletal muscle cells
